Data from article PMC8822754, “Chloride intracellular channel 1 activity is not required for glioblastoma development but its inhibition dictates glioma stem cell responsivity to novel biguanide derivatives” (Journal of Experimental & Clinical Cancer Research : CR, 2022).

Molecular target: Chloride intracellular channel-1 (CLIC1) (Homo sapiens, UniProt O00299)
Experiment: microscale thermophoresis (also CLIC1 current block by patch clamp in GBM3 GSCs)
Format: binding
Design: recombinant CLIC1, NHS dye-labelled

| SMILES | Kd |
| --- | --- |
| COc1ccc(N2C(N)=NC(N)=NC2(C)C)cc1 [Q54] | 1900 ± 500 µM |
| COc1ccc(/N=C(\N)N=C(N)N)cc1 [Q48] | 15.6 ± 1.9 µM |
